# Entries after “also recorded” stand apart in the source; their conditions may differ.
# Key:
# Swiss-Webster mice = conditions: mouse, in vivo
# [1] = tested on: chronic morphine-dependent mice; assay: naloxone-precipitated withdrawal hyperalgesia in chronic morphine-dependent mice (tail-flick); conditions: naltrexone 0.1 ng/kg with naloxone, FIG. 9
# rodents and humans = conditions: moderately low doses (˜1 μg/kg), rodents and humans (refs. 20-22); cited from earlier work
# [2] = several species, including rat and human (ref. 20); cited from earlier work
# rodents = conditions: high doses, administered immediately after training, rodents (ref. 20); cited from earlier work
smiles,measurement,setting,value
"CN[C@H](CC(=O)O)C(=O)O [NMDA, N-methyl-D-aspartate]","duration of hyperalgesia, NMDA alone",Swiss-Webster mice,> 5 h
same,"effect on tail-flick latencies, NMDA alone",Swiss-Webster mice,decreases in tail-flick latencies (indicating hyperalgesia)
"O=C1CC[C@@]2(O)[C@H]3Cc4ccc(O)c5c4[C@@]2(CCN3CC2CC2)[C@H]1O5 [NTX, naltrexone]",effect of cotreatment with 1 pg/kg rolipram in normal mice,Swiss-Webster mice,"prominent, long-lasting analgesia"
same,effect of delayed high-dose NTX on analgesia from rolipram 1 μg/kg plus CTX-B,Swiss-Webster mice,rapidly blocked
same,effect of delayed much higher dose of NTX in MSG + NTX cotreated mice,Swiss-Webster mice,blocked both hyperalgesia and analgesia
same,effect of high-dose NTX on analgesia from glutamic acid cotreatment,Swiss-Webster mice,rapid attenuation of the initially prominent analgesia
same,effect of high-dose NTX on analgesia from non-narcotic cotreatment,Swiss-Webster mice,antagonized rapidly
same,effect of second dose of NTX alone 24 h after initial cotreatment with rolipram 1 μg/kg,Swiss-Webster mice,evoked significant analgesia
same,effect of second injection of high-dose NTX on NMDA-evoked hyperalgesia and NMDA+NTX analgesia,Swiss-Webster mice,rapid attenuation of the initially prominent hyperalgesia
same,effect of ultra-low-dose NTX co-administered with thousand- to million-fold lower dose of rolipram,Swiss-Webster mice,"remarkable degree of opioid receptor-mediated, long-lasting analgesia"
same,"effect of ultra-low-dose NTX cotreatment on hyperalgesia evoked by glutamate, NMDA, IBMX or rolipram",Swiss-Webster mice,"rapidly blocked and reversed to prominent, long-lasting analgesia"
same,"effect on tail-flick latencies, cotreatment with 1 mg/kg NMDA",Swiss-Webster mice,"blocked NMDA-evoked hyperalgesia, and resulted in prominent analgesia"
same,"effect on tail-flick latencies, cotreatment with 1 mg/kg glutamic acid",Swiss-Webster mice,"blocked glutamic-acid-evoked hyperalgesia, and resulted in prominent analgesia"
same,"effect on tail-flick latencies, cotreatment with 10 mg/kg IBMX, high-dose NTX",Swiss-Webster mice,"not only blocked IBMX-evoked hyperalgesia, but also blocked onset of analgesia during the first hour after dosing"
same,"effect on tail-flick latencies, cotreatment with MSG 1 mg/kg",Swiss-Webster mice,Prominent analgesia
same,"effect on tail-flick latencies, cotreatment with rolipram 1 pg/kg",Swiss-Webster mice,remarkably similar degree of analgesia
same,"effect on tail-flick latencies, cotreatment with rolipram 1 μg/kg",Swiss-Webster mice,results in prominent analgesia
same,"effect on tail-flick latencies, inactivator alone (control)",Swiss-Webster mice,no alterations in tail-flick latencies
same,"effect on tail-flick latencies, cotreatment with 10 mg/kg IBMX, ultra-low-dose NTX",Swiss-Webster mice; sc,"blocked IBMX-evoked hyperalgesia, and resulted in prominent analgesia"
same,"effect on tail-flick latencies, cotreatment with 10-fold-higher dose of MSG",Swiss-Webster mice; sc,Prominent analgesia
same,effect of ultra-low-dose naltrexone cotreatment on naloxone-precipitated withdrawal hyperalgesia,[1],rapidly converted to analgesia
"N[C@@H](CCC(=O)O)C(=O)[O-].[Na+] [MSG, monosodium glutamate]","effect on tail-flick latencies, MSG alone, 10-fold-higher dose",Swiss-Webster mice,evokes hyperalgesia
same,"effect on tail-flick latencies, MSG alone, lower dose",Swiss-Webster mice,does not evoke significant hyperalgesia
"NC(CCC(=O)O)C(=O)O (racemic) [glutamic acid, dl-glutamic acid]","duration of hyperalgesia, glutamic acid alone",Swiss-Webster mice,> 6 h
same,"effect on tail-flick latencies, glutamic acid alone",Swiss-Webster mice,long-lasting hyperalgesia
COc1ccc(C2CNC(=O)C2)cc1OC1CCCC1 (stereo not drawn) [rolipram],adverse side-effects,rodents and humans,relatively moderate adverse side-effects
same,effect on memory behavior,rodents and humans,significant enhancement in memory behavior
same,"effect on tail-flick latencies, rolipram alone, 1 pg/kg",Swiss-Webster mice,no detectable hyperalgesic effect; also recorded: does not alter baseline tail-flick latency
same,"effect on tail-flick latencies, rolipram alone, 1 μg/kg",Swiss-Webster mice,acute hyperalgesic effects
same,persistence of effect of a single low dose of rolipram,Swiss-Webster mice,still effective for more than one day
same,absorption after oral administration,[2],absorbed fully and rapidly
same,effect on memory in passive avoidance tasks,rodents,improve memory
C[C@H](NC(=O)[C@@H](CC(=O)NO)Cc1ccccc1)C(=O)O [kelatorphan],effect of kelatorphan on analgesic response to 1 pg/kg rolipram plus 0.1 ng/kg NTX,Swiss-Webster mice,prolongs the duration of the analgesic response
same,"effect on baseline tail-flick latency, kelatorphan alone",Swiss-Webster mice,does not alter baseline tail-flick latency
same,"effect on tail-flick latencies, kelatorphan 0.1 mg/kg cotreatment with rolipram 1 pg/kg",Swiss-Webster mice,prominent analgesia
same,"effect on tail-flick latencies, kelatorphan 1 mg/kg cotreatment with rolipram 1 pg/kg",Swiss-Webster mice,elicits prominent analgesia
"CC(C)Cn1c(=O)n(C)c(=O)c2[nH]cnc21 [IBMX, 3-isobutyl-1-methylxanthine]","duration of hyperalgesia, IBMX alone",Swiss-Webster mice,> 3 h
same,"effect on tail-flick latencies, IBMX alone",Swiss-Webster mice,long-lasting hyperalgesia
same,effect on memory in passive avoidance tasks,rodents,improve memory
"COC(=O)/C=C/C(=O)N[C@@H]1CC[C@@]2(O)[C@H]3Cc4ccc(O)c5c4[C@@]2(CCN3CC2CC2)[C@H]1O5 [β-FNA, β-funaltrexamine]","effect on tail-flick latencies, ultra-low-dose mu- or kappa-opioid receptor antagonist cotreatment with rolipram",Swiss-Webster mice,block the acute hyperalgesic effects of rolipram and result in prominent analgesia
"Oc1ccc2c3c1O[C@H]1c4[nH]c5c(c4C[C@@]4(O)[C@@H](C2)N(CC2CC2)CC[C@]314)C[C@@]1(O)[C@H]2Cc3ccc(O)c4c3[C@@]1(CCN2CC1CC1)[C@H]5O4 [nor-BNI, nor-binaltorphimine]","effect on tail-flick latencies, ultra-low-dose mu- or kappa-opioid receptor antagonist cotreatment with rolipram",Swiss-Webster mice,larger magnitude of analgesia
CCOC(=O)C1=C[C@@H](OC(CC)CC)[C@H](NC(C)=O)[C@@H](N)C1 [oseltamivir],effect of cotreatment with 1 pg/kg rolipram in normal mice,Swiss-Webster mice,"prominent, long-lasting analgesia"

# From patent publication US20100203084A1, “METHOD FOR TREATING PAIN OR OPIOID DEPENDENCE USING A SPECIFIC TYPE OF NON-OPIOID AGENT IN COMBINATION WITH A SELECTIVE EXCITATORY-OPIOID-RECEPTOR INACTIVATOR” (priority 2006, published 2010)
